GI50, RatioGI50 and Ratio data for nine compounds are collected here from ChEMBL document CHEMBL1629468, “Synthesis and antitumor activity of novel benzimidazole-5-carboxylic acid derivatives and their transition metal complexes as topoisomerease II inhibitors” (2010).

The nature of assay [1]: Growth inhibition of human gastric cancer cells after 72 hrs by sulforhodamine B assay. Format: functional. The note with it: Cancer cell lines, Stomach, pooled result: one value given for 3 cell lines, strains, targets or settings.
The test system of assay [2] is Cancer cell lines. Put plainly: Ratio of compound GI50 to etoposide GI50 for human lung cancer cells. Format: functional.
In assay [3] the test system is Cancer cell lines. Put plainly: Ratio of compound GI50 to etoposide GI50 for human colon cancer cells. Format: functional.
The subject of assay [4] is Cancer cell lines. In words: Ratio of compound GI50 to etoposide GI50 for human gastric cancer cells. Format: functional, Stomach.
For assay [5], the target named is DNA topoisomerase 2-alpha (Mus musculus) (UniProt Q01320). In words: Ratio of compound to etoposide on inhibitory effect of mouse DNA topoisomerase 2.
DNA topoisomerase 2-alpha (Mus musculus), sequence (Q01320 whole entry): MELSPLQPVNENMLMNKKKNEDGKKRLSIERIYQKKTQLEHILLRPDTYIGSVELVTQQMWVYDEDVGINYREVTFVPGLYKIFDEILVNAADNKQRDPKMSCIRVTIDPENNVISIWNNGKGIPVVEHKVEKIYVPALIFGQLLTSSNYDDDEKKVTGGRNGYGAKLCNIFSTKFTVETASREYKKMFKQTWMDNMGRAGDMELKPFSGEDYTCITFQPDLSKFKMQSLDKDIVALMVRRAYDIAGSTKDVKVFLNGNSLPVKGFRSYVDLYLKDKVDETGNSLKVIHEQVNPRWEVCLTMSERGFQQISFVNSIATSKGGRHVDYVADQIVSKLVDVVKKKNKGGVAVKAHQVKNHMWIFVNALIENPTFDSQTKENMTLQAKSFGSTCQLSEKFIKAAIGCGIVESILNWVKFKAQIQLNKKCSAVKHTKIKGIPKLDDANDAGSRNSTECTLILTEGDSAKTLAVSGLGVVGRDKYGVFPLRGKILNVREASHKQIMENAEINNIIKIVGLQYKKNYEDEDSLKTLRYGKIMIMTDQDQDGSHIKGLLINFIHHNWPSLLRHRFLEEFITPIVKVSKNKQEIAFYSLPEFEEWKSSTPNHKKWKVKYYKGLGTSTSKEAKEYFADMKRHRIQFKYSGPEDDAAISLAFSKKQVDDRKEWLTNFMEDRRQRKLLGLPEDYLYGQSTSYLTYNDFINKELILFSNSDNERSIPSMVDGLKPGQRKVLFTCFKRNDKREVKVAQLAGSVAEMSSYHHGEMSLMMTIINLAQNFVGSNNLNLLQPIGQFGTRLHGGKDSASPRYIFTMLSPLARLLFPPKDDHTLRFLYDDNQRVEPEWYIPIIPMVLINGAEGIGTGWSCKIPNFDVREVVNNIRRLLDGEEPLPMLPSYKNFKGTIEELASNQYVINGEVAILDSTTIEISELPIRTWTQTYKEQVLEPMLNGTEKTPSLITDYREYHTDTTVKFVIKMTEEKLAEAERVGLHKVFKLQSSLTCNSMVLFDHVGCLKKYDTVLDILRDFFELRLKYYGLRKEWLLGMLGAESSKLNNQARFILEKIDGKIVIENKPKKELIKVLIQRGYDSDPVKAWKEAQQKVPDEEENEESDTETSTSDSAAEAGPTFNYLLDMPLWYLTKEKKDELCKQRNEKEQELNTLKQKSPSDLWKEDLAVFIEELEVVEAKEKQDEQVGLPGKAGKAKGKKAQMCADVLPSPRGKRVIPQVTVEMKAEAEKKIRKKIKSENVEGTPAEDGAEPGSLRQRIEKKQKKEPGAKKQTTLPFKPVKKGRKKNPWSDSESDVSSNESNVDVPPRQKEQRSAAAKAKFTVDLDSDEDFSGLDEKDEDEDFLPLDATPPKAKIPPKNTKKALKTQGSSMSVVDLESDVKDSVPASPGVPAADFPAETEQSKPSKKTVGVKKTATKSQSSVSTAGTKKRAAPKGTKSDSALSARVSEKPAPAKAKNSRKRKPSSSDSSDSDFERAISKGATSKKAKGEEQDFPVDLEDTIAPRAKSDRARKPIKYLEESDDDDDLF

For the compound `COc1cc([C@@H]2c3cc4c(cc3[C@@H](O[C@@H]3O[C@@H]5CO[C@@H](C)O[C@H]5[C@H](O)[C@H]3O)[C@H]3COC(=O)[C@H]23)OCO4)cc(OC)c1O` [ETOPOSIDE], in assay [1], the GI50 was 1.3 µM.

As for `O=C(O)c1ccc2[nH]c(CNc3ccncc3)nc2c1`, the GI50 in assay [1] stood at 17 µM.

Compound `O=C(O)c1ccc2[nH]c(CNc3nc4ccccc4[nH]3)nc2c1` yielded a GI50 in assay [1] greater than 100 µM.

In the case of `O=C(O)c1ccc2[nH]c(C[n+]3ccccc3)nc2c1.[Cl-]`, in assay [1], halving of growth (GI50) required 0.095 µM. The RatioGI50 in the assay on Cancer cell lines [2], with Cancer cell lines [3] and with Cancer cell lines [4] was 7 each time. Also, in assay [5], the Ratio worked out at 10.

For `O=C(O)c1ccc2[nH]c(CCl)nc2c1`, the GI50 in assay [1] is greater than 100 µM.

For `COc1cccc2c1C(=O)c1c(O)c3c(c(O)c1C2=O)C[C@@](O)(C(=O)CO)C[C@@H]3O[C@H]1C[C@H](N)[C@H](O)[C@H](C)O1` [DOXORUBICIN], the GI50 in assay [1] turned out to be 0.065 µM.

As to `O=C(O)c1ccc2[nH]c(CNc3nccs3)nc2c1`, halving of growth in assay [1] (GI50) required 47 µM.

In assay [1], `O=C(O)c1ccc2[nH]c(CNc3ccccn3)nc2c1` yielded a GI50 of 22 µM.

In turn, `CCc1c2c(nc3ccc(O)cc13)-c1cc3c(c(=O)n1C2)COC(=O)[C@]3(O)CC` [7-ETHYL-10-HYDROXYCAMPTOTHECIN] returned a GI50 in assay [1] of 0.066 µM.
